Results on 8 compounds are retold here after ChEMBL document CHEMBL5465560, “Selectivity Literature for EUbOPEN Chemogenomic Library” (2024).

The target in assay [1] is Dual specificity mitogen-activated protein kinase kinase 1 (Homo sapiens, UniProt Q02750). The experiment in a line: Selectivity interaction (Ambit KINOMEscan and KiNATiv profiling in Jurkat cells) EUB0000090b MAP2K1. The assay is classed as cell-based. The following applies: at 1 µM.
The target in assay [2] is Tyrosine-protein kinase Yes (Homo sapiens) (UniProt P07947). The experiment in a line: Selectivity interaction (Millipore kinase profiler) EUB0000124b YES1. The following applies: at 10 µM.
Chain of Tyrosine-protein kinase Yes (Homo sapiens) (P07947 2-543 limits assumed): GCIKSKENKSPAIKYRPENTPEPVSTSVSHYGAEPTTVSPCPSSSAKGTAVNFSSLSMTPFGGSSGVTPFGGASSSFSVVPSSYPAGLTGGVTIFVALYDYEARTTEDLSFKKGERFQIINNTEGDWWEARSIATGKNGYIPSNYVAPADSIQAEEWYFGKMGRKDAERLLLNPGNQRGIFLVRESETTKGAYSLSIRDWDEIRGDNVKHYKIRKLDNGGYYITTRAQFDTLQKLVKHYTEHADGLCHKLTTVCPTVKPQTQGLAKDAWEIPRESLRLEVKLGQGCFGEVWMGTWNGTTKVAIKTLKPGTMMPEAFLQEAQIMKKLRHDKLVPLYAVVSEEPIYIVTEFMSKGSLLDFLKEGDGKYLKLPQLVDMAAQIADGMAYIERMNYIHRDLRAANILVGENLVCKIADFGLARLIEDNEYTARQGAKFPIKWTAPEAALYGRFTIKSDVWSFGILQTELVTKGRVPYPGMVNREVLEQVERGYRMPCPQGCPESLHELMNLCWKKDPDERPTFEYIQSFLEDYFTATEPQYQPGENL
The target of assay [3] is Histone-lysine N-methyltransferase SETD2 (Homo sapiens) (UniProt Q9BYW2). The experiment in a line: Selectivity interaction (Methyltransferase screen (Scintillation proximity assays)) EUB0000255b SETD2.
Chain of Histone-lysine N-methyltransferase SETD2 (Homo sapiens) (Q9BYW2 whole entry): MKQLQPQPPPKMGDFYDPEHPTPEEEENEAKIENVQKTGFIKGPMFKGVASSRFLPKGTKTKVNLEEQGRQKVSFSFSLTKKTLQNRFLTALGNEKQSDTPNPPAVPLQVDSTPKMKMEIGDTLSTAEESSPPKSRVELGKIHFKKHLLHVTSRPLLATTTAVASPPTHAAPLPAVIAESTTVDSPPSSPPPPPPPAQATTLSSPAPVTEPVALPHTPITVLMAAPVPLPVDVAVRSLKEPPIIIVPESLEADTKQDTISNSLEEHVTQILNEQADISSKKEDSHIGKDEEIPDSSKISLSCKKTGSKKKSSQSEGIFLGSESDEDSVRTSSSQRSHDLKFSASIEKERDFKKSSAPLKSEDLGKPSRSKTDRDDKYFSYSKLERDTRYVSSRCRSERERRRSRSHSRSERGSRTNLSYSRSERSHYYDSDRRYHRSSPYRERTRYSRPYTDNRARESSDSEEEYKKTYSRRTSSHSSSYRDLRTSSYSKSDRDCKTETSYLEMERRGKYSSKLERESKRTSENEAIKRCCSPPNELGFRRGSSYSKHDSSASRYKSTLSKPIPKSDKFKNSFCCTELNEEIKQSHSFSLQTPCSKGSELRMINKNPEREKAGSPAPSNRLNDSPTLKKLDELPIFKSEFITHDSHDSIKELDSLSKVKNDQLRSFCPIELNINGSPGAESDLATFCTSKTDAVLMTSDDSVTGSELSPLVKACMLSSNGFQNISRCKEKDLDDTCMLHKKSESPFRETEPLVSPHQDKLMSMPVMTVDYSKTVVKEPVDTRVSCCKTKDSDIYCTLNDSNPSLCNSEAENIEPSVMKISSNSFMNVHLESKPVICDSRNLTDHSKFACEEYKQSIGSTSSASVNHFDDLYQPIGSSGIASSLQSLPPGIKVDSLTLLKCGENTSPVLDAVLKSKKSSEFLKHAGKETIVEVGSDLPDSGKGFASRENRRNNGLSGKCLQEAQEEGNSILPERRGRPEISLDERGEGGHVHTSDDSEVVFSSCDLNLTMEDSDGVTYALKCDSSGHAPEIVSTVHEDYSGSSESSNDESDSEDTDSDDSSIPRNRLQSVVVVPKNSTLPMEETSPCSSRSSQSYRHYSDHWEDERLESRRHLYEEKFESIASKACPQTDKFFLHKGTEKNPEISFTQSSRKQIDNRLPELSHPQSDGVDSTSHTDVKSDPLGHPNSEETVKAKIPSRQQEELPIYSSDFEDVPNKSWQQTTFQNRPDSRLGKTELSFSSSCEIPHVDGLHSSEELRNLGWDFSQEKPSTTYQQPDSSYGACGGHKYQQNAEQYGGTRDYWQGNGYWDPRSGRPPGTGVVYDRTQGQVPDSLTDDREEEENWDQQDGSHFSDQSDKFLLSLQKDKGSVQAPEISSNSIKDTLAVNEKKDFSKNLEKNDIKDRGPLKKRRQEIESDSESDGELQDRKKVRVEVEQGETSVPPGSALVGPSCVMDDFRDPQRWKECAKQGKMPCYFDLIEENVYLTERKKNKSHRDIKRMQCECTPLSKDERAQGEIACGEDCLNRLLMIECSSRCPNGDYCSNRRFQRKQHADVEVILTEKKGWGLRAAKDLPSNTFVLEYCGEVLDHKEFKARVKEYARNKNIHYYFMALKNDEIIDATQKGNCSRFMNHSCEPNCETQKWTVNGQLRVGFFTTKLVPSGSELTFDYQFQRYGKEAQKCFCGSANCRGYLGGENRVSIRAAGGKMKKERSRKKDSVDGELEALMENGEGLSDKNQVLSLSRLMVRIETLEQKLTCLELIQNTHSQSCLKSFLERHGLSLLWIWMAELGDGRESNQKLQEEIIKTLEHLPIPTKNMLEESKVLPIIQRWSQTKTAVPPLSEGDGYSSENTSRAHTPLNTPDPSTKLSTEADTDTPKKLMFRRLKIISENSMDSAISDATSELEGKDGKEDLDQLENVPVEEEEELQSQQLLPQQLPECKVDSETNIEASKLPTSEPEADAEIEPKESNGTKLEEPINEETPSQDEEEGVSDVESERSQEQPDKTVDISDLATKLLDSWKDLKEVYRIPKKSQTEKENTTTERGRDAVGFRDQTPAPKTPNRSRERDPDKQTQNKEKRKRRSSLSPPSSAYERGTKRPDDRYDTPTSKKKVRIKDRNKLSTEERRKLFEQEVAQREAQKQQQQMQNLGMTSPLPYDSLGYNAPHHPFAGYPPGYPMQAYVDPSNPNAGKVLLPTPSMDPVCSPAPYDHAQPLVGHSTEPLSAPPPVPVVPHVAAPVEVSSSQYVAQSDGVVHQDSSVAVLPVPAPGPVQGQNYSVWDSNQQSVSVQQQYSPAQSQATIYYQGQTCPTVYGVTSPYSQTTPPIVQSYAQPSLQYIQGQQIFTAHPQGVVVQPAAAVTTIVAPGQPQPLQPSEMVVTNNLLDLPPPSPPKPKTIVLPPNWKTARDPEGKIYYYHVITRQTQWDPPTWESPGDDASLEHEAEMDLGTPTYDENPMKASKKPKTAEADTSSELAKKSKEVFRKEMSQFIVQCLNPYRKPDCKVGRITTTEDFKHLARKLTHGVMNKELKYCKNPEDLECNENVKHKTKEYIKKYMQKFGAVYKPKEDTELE
The target in assay [4] is DNA (cytosine-5)-methyltransferase 3A (Homo sapiens) (UniProt Q9Y6K1). The experiment in a line: Selectivity interaction (Methyltransferase screen (Scintillation proximity assays)) EUB0000255b DNMT3A.
Chain of DNA (cytosine-5)-methyltransferase 3A (Homo sapiens) (Q9Y6K1 whole entry, looked up): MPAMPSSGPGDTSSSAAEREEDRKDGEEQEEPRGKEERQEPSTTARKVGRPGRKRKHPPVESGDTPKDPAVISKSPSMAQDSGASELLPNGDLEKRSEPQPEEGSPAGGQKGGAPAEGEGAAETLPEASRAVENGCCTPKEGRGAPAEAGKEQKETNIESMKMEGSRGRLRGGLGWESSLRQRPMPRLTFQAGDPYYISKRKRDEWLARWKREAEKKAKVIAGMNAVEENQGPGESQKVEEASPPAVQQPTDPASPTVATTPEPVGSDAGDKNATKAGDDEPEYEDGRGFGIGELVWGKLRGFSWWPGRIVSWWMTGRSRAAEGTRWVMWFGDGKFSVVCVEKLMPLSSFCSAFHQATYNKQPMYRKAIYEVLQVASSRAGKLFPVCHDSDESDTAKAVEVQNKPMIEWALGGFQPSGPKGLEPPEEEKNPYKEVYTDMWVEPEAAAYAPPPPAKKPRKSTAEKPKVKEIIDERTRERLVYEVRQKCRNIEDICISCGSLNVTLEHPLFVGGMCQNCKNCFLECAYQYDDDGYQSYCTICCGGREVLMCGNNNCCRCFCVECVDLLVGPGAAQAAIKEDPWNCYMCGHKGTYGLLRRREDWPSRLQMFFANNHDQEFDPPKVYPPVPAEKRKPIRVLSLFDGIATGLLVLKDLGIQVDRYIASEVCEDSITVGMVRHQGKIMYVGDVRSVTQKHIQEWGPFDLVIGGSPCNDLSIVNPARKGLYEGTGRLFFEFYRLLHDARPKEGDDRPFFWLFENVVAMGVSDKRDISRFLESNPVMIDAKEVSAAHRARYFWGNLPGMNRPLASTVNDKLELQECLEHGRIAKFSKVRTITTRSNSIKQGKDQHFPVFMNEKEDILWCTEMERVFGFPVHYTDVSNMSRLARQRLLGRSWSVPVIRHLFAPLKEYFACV
In assay [5] the target is T1, Serine/threonine-protein kinase NLK (Homo sapiens) (UniProt Q9UBE8).
T1 sequence (whole entry): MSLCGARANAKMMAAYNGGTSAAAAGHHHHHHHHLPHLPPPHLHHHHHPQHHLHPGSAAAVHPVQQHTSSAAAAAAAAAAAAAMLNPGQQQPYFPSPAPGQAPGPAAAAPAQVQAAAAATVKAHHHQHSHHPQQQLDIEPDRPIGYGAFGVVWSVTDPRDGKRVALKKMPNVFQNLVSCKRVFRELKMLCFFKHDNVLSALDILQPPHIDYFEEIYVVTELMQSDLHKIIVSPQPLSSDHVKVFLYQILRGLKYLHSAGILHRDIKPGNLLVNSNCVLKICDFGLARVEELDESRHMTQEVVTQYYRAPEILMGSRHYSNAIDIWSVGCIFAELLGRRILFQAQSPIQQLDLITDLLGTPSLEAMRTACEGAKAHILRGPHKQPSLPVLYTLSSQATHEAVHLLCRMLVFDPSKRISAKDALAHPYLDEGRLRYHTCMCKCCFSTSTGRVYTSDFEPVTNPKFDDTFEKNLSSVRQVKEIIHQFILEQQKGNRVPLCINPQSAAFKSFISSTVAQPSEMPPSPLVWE
The experiment in a line: Selectivity interaction (KinomeScan (DiscoverX)) EUB0000655a NLK. The following applies: at 10 µM.

Assay [6] has as its target Serine/threonine-protein kinase Nek4 (Homo sapiens) (UniProt P51957). The experiment in a line: Selectivity interaction (Kinase panel (Eurofins)) EUB0001564a NEK4. The following applies: at 1 µM.
Assay [7] has as its target T2, Histone-lysine N-methyltransferase SUV39H1 (Homo sapiens) (UniProt O43463).
T2 sequence (whole entry): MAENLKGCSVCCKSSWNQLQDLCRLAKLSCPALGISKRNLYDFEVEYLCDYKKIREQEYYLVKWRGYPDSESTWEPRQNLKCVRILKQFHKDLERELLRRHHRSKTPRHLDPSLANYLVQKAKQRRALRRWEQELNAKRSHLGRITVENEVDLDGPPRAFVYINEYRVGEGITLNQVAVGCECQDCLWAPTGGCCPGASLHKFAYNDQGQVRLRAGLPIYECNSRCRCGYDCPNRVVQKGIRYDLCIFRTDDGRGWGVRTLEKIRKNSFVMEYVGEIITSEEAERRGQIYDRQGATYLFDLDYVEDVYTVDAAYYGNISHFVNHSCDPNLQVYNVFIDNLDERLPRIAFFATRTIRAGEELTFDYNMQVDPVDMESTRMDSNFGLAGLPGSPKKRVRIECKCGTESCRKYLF
The experiment in a line: Selectivity interaction (Transferase panel (protein, RNA, and DNA methyltransferases. and EP300 (acetyltransferase))) EUB0000270b SUV39H1.

Assay [8] addresses Tyrosine-protein kinase JAK1 (Homo sapiens, UniProt P23458). The experiment in a line: Selectivity interaction (ActivX KiNativ screen (kinase selectivity in THP-1 cell lysates)) EUB0000639a JAK1. Type of assay: subcellular. The following applies: lysate, at 1 µM.
Assay [9] deals with Serine/threonine-protein kinase mTOR (Homo sapiens, UniProt P42345). The experiment in a line: Selectivity interaction (ActivX KiNativ screen (kinase selectivity in THP-1 cell lysates)) EUB0000639a MTOR. The assay is classed as subcellular. The following applies: lysate.
Assay [10] concerns the target T3, Serine/threonine-protein kinase TAO3 (Homo sapiens) (UniProt Q9H2K8).
T3 sequence (whole entry): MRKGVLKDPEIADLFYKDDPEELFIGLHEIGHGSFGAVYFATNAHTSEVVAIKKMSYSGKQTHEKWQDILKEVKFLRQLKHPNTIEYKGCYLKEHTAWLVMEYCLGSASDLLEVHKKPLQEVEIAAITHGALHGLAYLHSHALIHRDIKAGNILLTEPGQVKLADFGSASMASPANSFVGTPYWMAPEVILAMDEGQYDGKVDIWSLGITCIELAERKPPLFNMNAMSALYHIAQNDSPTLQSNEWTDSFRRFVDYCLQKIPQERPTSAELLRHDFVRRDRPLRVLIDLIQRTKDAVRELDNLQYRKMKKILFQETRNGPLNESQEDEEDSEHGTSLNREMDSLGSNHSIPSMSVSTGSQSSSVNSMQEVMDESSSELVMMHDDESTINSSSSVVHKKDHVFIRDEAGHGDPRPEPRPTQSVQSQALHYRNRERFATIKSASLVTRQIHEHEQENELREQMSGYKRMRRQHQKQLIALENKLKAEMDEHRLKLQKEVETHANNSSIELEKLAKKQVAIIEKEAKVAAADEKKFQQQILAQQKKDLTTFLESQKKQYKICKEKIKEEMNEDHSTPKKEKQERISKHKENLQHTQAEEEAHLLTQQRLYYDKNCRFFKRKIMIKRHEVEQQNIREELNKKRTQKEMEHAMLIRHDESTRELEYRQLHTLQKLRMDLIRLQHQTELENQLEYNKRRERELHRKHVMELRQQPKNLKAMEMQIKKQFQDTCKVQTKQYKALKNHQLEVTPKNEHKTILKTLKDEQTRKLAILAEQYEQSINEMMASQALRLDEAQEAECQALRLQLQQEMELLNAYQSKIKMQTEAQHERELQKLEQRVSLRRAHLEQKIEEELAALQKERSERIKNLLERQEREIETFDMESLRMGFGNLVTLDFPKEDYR
The experiment in a line: Selectivity interaction (KinomeScan (DiscoverX)) EUB0000595a TAOK3. The note with it: at 10 µM.

Chain of Dual specificity mitogen-activated protein kinase kinase 1 (Q02750 whole entry): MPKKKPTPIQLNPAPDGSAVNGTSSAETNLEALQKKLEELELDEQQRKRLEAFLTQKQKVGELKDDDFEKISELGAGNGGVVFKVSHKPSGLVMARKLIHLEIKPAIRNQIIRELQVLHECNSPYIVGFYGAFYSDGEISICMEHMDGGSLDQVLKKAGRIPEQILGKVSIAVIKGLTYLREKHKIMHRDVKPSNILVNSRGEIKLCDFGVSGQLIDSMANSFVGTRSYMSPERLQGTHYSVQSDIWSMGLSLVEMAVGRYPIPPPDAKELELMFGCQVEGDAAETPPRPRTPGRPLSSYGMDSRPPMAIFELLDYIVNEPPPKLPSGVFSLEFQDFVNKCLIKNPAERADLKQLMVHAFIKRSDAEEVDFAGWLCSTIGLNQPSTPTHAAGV

In assay [1], `CN(C)C/C=C/C(=O)Nc1ccc(C(=O)N2CCCC(Nc3ncc(Cl)c(-c4c[nH]c5ccccc45)n3)C2)cc1` (configuration not stated) displayed a % of control of 99%.
Compound `CC(=O)Nc1cccc(-n2c(=O)n(C3CC3)c(=O)c3c(Nc4ccc(I)cc4F)n(C)c(=O)c(C)c32)c1` gave a % of control in assay [2] of 104%.
Take `COCCN1CCC(c2cc(CN(C)C(=O)c3cccc(Oc4ccccc4)c3)ccn2)CC1`: the % activity in [3] (at 1 µM) was greater than 95%; in assay [3] (at 10 µM), greater than 90%; in assay [4] (at 1 µM), greater than 95%; in assay [4] (at 10 µM) it was greater than 85%.
For `CN(C)CCOc1ccc(-c2nc(-c3ccncc3)c(-c3ccc4c(c3)CC/C4=N\O)[nH]2)cc1`, the % of control in assay [5] is 90%.
With `CC[C@@H](Nc1c(C#N)c(-c2ccc(-c3cccc(C)c3F)cc2)nc2cnccc12)C(=O)O` [BAY-091], the % of inhibition in [6] is 32.1%.
For `Cc1cc(CN)cc(C)c1-c1ncn(C)c1-c1cncn1C`, the results for the % activity in assay [7] (at 1 µM) and in assay [7] (at 10 µM) were greater than 90% and greater than 80%, respectively.
Turning to `CC[C@@H]1[C@H](F)C(=O)N[C@@H]1COc1nccc2cc(C(N)=O)c(OC)cc12` [ZIMLOVISERTIB], the % of inhibition is 3.8% in [8]; 8% in assay [9] (at 0.01 µM); 3% in [9] (at 0.04 µM); 4.3% in assay [9] (at 0.2 µM); 9.9% in [9] (at 1 µM); -4.7% in [9] (at 5 µM).
As to `COCC(=O)NC/C=C/c1ccc2ncnc(Nc3ccc(Oc4ccc(C)nc4)c(C)c3)c2c1` [CP-724714], in [10], the % of control is 100%.
